The test system of experiment [1] is human, bone marrow derived CD34+ cells. As to the kind of experiment: C/BFU-e assay (erythroid colony formation). It is filed as cell-based. To be noted: Table 2; colonies 90% of maximum relative to EPO control, 14 days. An excerpt: EPO-R signaling stimulates the differentiation of bone marrow stem cells into proliferating red blood cell presursors. This assay measures the ability of test peptides to stimulate the proliferation and differentiation of red blood cell precursors from primary human bone marrow pluripotent stem cells.
For this assay, serial dilutions of test peptide are made in IMDM medium (Gibco) supplemented with 10% FBS (Hyclone). […] The methylcellulose and peptide mixture is then vortexed thoroughly. Aliquots (100,000 cells/mL) of human, bone marrow derived CD34+ cells (Poietics/Cambrex) are thawed. The thawed cells are gently added to 0.1 mL of 1 mg/ml DNAse (Stem Cells) in a 50 mL tube. Next, 40-50 mL IMDM medium is added gently to cells: the medium is added drop by drop along the side of the 50 mL tube for the first 10 mL, and then the remaining volume of medium is slowly dispensed along the side of the tube. The cells are then spun at 900 rpm for 20 min, and the media removed carefully by gentle aspiration. The cells are resuspended in 1 ml of IMDM medium and the cell density per mL is counted on hemacytometer slide (10 μL aliquot of cell suspension on slide, and cell density is the average count×10,000 cells/ml). The cells are then diluted in IMDM medium to a cell density of 15,000 cells/mL. A 100 μL of diluted cells is then added to each 1.5 mL methyl cellulose plus peptide sample (final cell concentration in assay media is 1000 cells/mL), and the mixture is vortexed. Allow the bubbles in the mixture to disappear, and then aspirate 1 mL using blunt-end needle. Add 0.25 mL aspirated mixture from each sample into each of 4 wells of a 24-well plate (Falcon brand). Incubate the plated mixtures at 37° C. under 5% CO2 in a humid incubator for 14 days. Score for the presence of erythroid colonies using a phase microscope (5×-10× objective, final magnification of 100×).
EPO-R signaling stimulates the differentiation of bone marrow stem cells into proliferating red blood cell precursors. […]

Experiment [2] has as its target chimeric receptor comprising the extra-cellular portion of the human EPO receptor to the intra-cellular portion of the human GCSF receptor. As to the kind of experiment: Reporter assay (Baf3/EpoR/GCSFR fos/lux luciferase). The experiment is classed as cell-based. As to conditions: Table 2; Baf3/EpoR/GCSFR fos/lux cells, 4 h. From the text:
This assay is based upon a on a murine pre-B-cell line derived reporter cell, Baf3/EpoR/GCSFR fos/lux. This reporter cell line expresses a chimeric receptor comprising the extra-cellular portion of the human EPO receptor to the intra-cellular portion of the human GCSF receptor. This cell line is further transfected with a fos promoter-driven luciferase reporter gene construct. Activation of this chimeric receptor through addition of erythropoietic agent results in the expression of the luciferase reporter gene, and therefore the production of light upon addition of the luciferase substrate luciferin. Thus, the level of EPO-R activation in such cells may be quantitated via measurement of luciferase activity.
The Baf3/EpoR/GCSFR fos/lux cells are cultured in DMEM/F12 medium (Gibco) supplemented with 10% fetal bovine serum (FBS; Hyclone), 10% WEHI-3 supernatant (the supernatant from a culture of WEHI-3 cells, ATCC #TIB-68), and penicillin/streptomycin. […] Following a 5-minute incubation, light emission is measured on a Packard Topcount Luminometer (Packard Instrument Co., Downers Grove, Ill.). Light counts are plotted relative to test peptide concentration and analysed using Graph Pad software. The concentration of test peptide that results in a half-maximal emission of light is recorded as the EC50 [See Table 2: Reporter EC50]. […]
A general note: Reporter assays use an easily measured gene product as a stand-in for the process of interest.

The next experiment deals with T1, EPO-R (Homo sapiens, UniProt P19235).
T1 construct: made in house; host or cells: Chinese Hamster Ovary cells
T1 sequence (P19235 25-250 limits assumed): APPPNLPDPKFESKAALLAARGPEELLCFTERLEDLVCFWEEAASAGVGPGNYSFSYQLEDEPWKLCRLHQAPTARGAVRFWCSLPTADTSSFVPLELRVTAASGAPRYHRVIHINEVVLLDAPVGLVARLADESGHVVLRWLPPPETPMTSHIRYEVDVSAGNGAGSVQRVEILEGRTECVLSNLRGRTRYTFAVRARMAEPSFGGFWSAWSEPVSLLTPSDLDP
As to the kind of experiment: Competitive binding assay (AlphaQuest bead proximity, AQ). To be noted: Table 2; competition with biotinylated EPO-R-binding peptide tracer. From the text: Competitive binding calculations are made using an assay in which a light signal is generated as a function of the proximity of two beads: a streptavidin donor bead bearing a biotinylated EPO-R-binding peptide tracer and an acceptor bead to which is bound EPO-R. Light is generated by non-radiative energy transfer, during which a singlet oxygen is released from a first bead upon illumination, and contact with the released singlet oxygen causes the second bead to emit light. These bead sets are commercially available (Packard). Bead proximity is generated by the binding of the EPO-R-binding peptide tracer to the EPO-R. A test peptide that competes with the EPO-R-binding peptide tracer for binding to EPO-R will prevent this binding, causing a decrease in light emission.
In more detail the method is as follows: Add 4 μL of serial dilutions of the test EPO-R agonist peptide, or positive or negative controls, to wells of a 384 well plate. Thereafter, add 2 μL/well of receptor/bead cocktail. […]
Centrifuge 1 min to mix. […] After 18 hours read light emission using an AlphaQuest reader (Packard). […]

Bridges are numbered along the chain shown (N, C = ends). Where no end group is shown, it is not given here. [ ]: non-standard residue; d: D form. 1Nal = N[C@@H](Cc1cccc2ccccc12)C(=O)O; Sar = CNCC(=O)O

“peptide dimer of monomers (AcG)GLYACHMGPIT(1-nal)VCQPLR(MeG) (SEQ ID NO: 3) [Peptide III] (Ac-GGLYACHMGPIT[1Nal]VCQPLR[Sar]; disulfide 6-15 (inferred); not fully specified (residue 1); printed as (AcG)GLYACHMGPIT(1-nal)VCQPLR(MeG); also: homodimer, dimer linkage not given here)”: the EC90 in experiment [1] turned out to be 2.7 nM. The same substance came in with an EC50 in experiment [2] of 0.15 nM.

In the case of “peptide dimer of monomers (AcG)GLYACHMGPIT(1-nal)VCQPLR(MeG) (SEQ ID NO: 3) [Peptide II] (Ac-GGLYACHMGPIT[1Nal]VCQPLR[Sar]; disulfide 6-15 (inferred); not fully specified (residue 1); printed as (AcG)GLYACHMGPIT(1-nal)VCQPLR(MeG); also: homodimer, dimer linkage not given here)”, the EC90 in experiment [1] was found to be 2.2 nM. The IC50 with EPO-R was determined as 0.11 nM.

In general, EC90 refers to the point of the concentration-response curve where the effect stands at 90%. The low end stands for greater potency, the high end for weaker potency. Usually EC50 stands for the concentration at which the effect is half-maximal. For orientation: IC50 means the concentration that inhibits the measured activity by half. Low values mean inhibition by little substance, high ones a need for much substance.

Source of the values: US8729030B2 (Affymax, Inc., priority 2003, dated 2014).
